Test results: patent US11505529B2, “8-phenyl-isoquinolines and pharmaceutical composition thereof used in the treatment of irritable bowel syndrome” (NATIONAL TAIWAN UNIVERSITY, priority 2017, dated 2022)
Where a name gives a salt, the structure may show the parent alone.

Legend:
log D = type: physicochemical
5-HT7R = 5-HT7R (Homo sapiens, UniProt P34969); assay: 5-HT7 receptor binding affinity
5-HT2AR = 5-HT2AR (Homo sapiens, UniProt P28223); assay: 5-HT2A receptor binding affinity
TNBS mice = assay: Intestinal pain (visceromotor response to colorectal distension) in post-TNBS colitis mice; type: in vivo, C57BL/6 mice; conditions: for intestinal pain (VMR): p.o. single dose 5 mg/kg, 90 minutes before analysis
Protocol: In the second model, intestinal inflammation was induced by intracolonic administration of 10% 2,4,6-trinotrobenzene sulfonic acid (TNBS) in 0.2 ml of 50% ethanol (Sigma-Aldrich, St. Louis, Mo., USA) via a 22-gauge feeding needle. Sham controls were given PBS in the same volume. Intestinal inflammatory parameters and pain levels were measured on various time points after TNBS administration.
For testing of anti-nociceptive effects in the post-TNBS model, mice were administered with novel 5-HT7R ligands by a single dose at 90 or 240 minutes before or by repeated administration of multiple doses for 10 consecutive days prior to intestinal pain measurement.
(§1) Abdominal pain was measured by visceromoter response (VMR) to colorectal distension (CRD) in mice following previously described methods with slight modification (Lu C L, Hsieh J C, Dun N J, et al. Estrogen rapidly modulates 5-hydroxytrytophan-induced visceral hypersensitivity via GPR30 in rats. Gastroenterology 2009; 137:1040-1050; Hong S, Zheng G, Wu X, et al. Corticosterone mediates reciprocal changes in CB 1 and TRPV1 receptors in primary sensory neurons in the chronically stressed rat. Gastroenterology 2011; 140:627-637 e4). Briefly, electrodes made from Teflon-coated stainless steel wire (A-M systems, Carlsborg, Wash.) were implanted in the abdominal external oblique muscles of mice at least 15 days prior to VMR experiments. The electrodes were exteriorized onto the back of the neck. Mice were habituated in the plexiglass cylinder for 30 minutes per day for 3 consecutive days before VMR experiments. The cylinder was used for partial restraint of conscious mice during the CRD experiments. For recording, electrodes were connected to an electromyogram acquisition system (AD instruments, New south wales, Australia). The colon was distended by inflating a balloon catheter inserted intra-anally such that it ended 1.5 cm proximal to the anus. Mice were subjected to four 10-second distensions (15, 40, and 65 mmHg) with 3-min rest intervals. The electromyographic (EMG) activity was amplified and digitized using a transducer (AD instruments) connected to a P511 AC amplifier (Grass instruments, Calif., USA) and Powerlab device with Chart 5 software (AD instruments). The EMG activity was rectified, and the response was recorded as the increase in the area under the curve (AUC) of the EMG amplitude during CRD versus the baseline period.

GW mice = assay: Intestinal pain (visceromotor response to colorectal distension) in mice with Giardia postinfection plus water avoidance stress (GW); type: in vivo, C57BL/6 mice; conditions: for intestinal pain (VMR): p.o. single dose 5 mg/Kg, 90 minutes before analysis
Description: Two animal models of IBS that had shown visceral hypersensitivity were used in the study, including dual challenge of postinfection combined with psychological stress, and post-inflammation. In the first model, mice were divided into two groups, including one group subjected to dual triggers of Giardia postinfection and water avoidance stress (GW) and the one group pair-fed with saline and non-handled (PN) as uninfected unstressed normal controls. Axenic Giardia lamblia trophozoites (strain GS/M, ATCC 50581) were cultured in vitro and harvested at log-phase as described in Singer et al., (T-cell-dependent control of acute Giardia lamblia infections in mice. Infect. Immun. 2000; 68:170-175) and Davids et al. (Polymeric immunoglobulin receptor in intestinal immune defense against the lumen-dwelling protozoan parasite Giardia. J Immunol 2006; 177:6281-6290). Mice were orally gavaged with 10^7 Giardia trophozoites suspended in 0.2 ml of sterile phosphate-buffered saline (PBS) or pair-fed with the same volume of PBS. The status of Giardia infection was verified after 4-7 days by enumeration of motile trophozoites in the small intestine following a cold-shock protocol (disclosed in Scott K G, Yu L C H, Buret A G. Role of CD8+ and CD4+ T lymphocytes in jejunal mucosal injury during murine giardiasis. Infect. Immun. 2004; 72:3536-3542 and Scott K G, Meddings J B, Kirk D R, et al. Intestinal infection with Giardia spp. reduces epithelial barrier function in a myosin light chain kinase-dependent fashion. Gastroenterology 2002; 123:1179-1190). On the sixth week postinfection in which the trophozoites could not be detected in the small intestine (post-clearance phase), mice were subjected to chronic psychological stress. The procedure of WAS involved placing the mouse on a platform (3×6 cm) in the center of a container (56×50 cm) with 3 cm (vertical height) of room temperature water. Mice remained on the platform for 1 hr to avoid water immersion as a psychological stress without physical harm. The 1-hr stress sessions were carried out for 10 consecutive days to mimic chronic repeated stress, and were performed between 9:00 and 12:00 to minimize the effect of the circadian rhythm. Uninfected and unstressed non-handled animals were kept in their cages as normal controls. On the last day of the stress session, intestinal pain was measured in mice.
For testing of anti-nociceptive effects in the GW model, mice were administered novel 5-HT7R ligands by a single dose 90 or 240 minutes prior to intestinal pain measurement. In additional settings, the novel ligands were repeatedly administered for 10 consecutive days 30 minutes before the start of each stress session and intestinal pain was measured immediately after the last stress session.
as §1, with “The colon was distended by inflating a balloon catheter inserted intra-anally such that it ended 1.5 cm proximal to the anus. Mice were subjected to four 10-second distensions (15, 40, and 65 mmHg) with 3-min rest intervals. The electromyographic (EMG) activity was amplified and digitized using a transducer (AD instruments) connected to a P511 AC amplifier (Grass instruments, Calif., USA) and Powerlab device with Chart 5 software (AD instruments). The EMG activity was rectified, and the response was recorded as the increase in the area under the curve (AUC) of the EMG amplitude during CRD versus the baseline period.” left out

colonic tissues = assay: Colonic histology (adverse response) after treatment in GW and TNBS mice
Description: Intestinal tissues were fixed in 4% paraformaldehyde (PFA) and embedded in paraffin wax with proper orientation of the crypt to villus axis before sectioning. Sections of 5-μm thickness were deparaffinized with xylene and graded ethanol, stained with hematoxylin and eosin (H&E), and observed under a light microscope.

5-HT7R, sequence (P34969 whole entry): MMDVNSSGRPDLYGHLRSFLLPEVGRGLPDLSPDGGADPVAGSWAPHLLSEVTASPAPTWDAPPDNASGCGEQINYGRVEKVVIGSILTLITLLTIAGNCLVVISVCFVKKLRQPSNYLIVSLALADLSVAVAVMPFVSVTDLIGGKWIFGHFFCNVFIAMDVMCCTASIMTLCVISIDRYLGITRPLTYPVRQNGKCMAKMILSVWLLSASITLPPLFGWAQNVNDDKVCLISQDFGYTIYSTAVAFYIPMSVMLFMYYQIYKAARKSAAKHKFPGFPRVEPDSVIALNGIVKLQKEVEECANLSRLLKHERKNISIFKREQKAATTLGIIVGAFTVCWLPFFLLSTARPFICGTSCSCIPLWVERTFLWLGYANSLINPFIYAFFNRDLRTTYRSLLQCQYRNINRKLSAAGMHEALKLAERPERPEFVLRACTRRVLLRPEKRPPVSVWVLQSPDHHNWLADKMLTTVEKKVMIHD
5-HT2AR, sequence (P28223 whole entry): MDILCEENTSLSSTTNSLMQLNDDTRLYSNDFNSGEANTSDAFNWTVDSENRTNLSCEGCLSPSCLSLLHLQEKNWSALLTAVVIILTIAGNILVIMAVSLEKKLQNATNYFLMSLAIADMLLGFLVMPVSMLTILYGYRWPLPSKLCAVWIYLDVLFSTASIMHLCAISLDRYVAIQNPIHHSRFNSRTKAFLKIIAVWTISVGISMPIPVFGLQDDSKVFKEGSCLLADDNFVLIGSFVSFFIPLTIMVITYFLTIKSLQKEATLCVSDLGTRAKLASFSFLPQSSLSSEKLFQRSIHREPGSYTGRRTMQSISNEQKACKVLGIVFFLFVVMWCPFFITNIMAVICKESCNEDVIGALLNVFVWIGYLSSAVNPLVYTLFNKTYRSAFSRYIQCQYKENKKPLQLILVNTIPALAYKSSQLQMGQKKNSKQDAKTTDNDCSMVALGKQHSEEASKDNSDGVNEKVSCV

Structure (SMILES) | logD (log D) | Ki (5-HT7R) [nM] | Ki (5-HT2AR) [nM] | intestinal pain (VMR) (TNBS mice) | intestinal pain (VMR) (GW mice; GW mice) | other results
COc1ccccc1-c1c2c(cc(OC)c1OC)CCN(CCCc1ccncc1)C2 [Compound 10, 6,7-dimethoxy-8-(2-methoxyphenyl)-2-(3-(pyridin-4-yl)propyl)-1,2,3,4-tetrahydroisoquinoline] | 2.93 | 7.1 | > 1000 | – | – | –
Cc1[nH]cnc1CN1CCc2c(c3ccccc3n2C)C1=O [ALN, alosetron hydrochloride] | – | – | – | had no effect on intestinal pain | reduced intestinal pain but was less efficient compared to compound 8 | mice with hyperemia and granulocyte infiltration in the colonic tissues (colonic tissues; C57BL/6, mouse, in vivo): 14%; colonic histology (colonic tissues; p.o. 5 mg/Kg, GW and TNBS mice, hydrochloride, 5 mg/kg): Hyperemia (*) and granulocyte infiltration (arrowheads) were observed
CN(C)C(=O)C(CCN1CCC(O)(c2ccc(Cl)cc2)CC1)(c1ccccc1)c1ccccc1 [LPM, loperamide hydrochloride, reference compound] | – | – | – | had no effect on intestinal pain | had no effect on intestinal nociception | –
CC1CCN(CC[C@H]2CCCN2S(=O)(=O)c2cccc(O)c2)CC1.Cl [SB7, SB-269970 hydrochloride, reference compound] | – | – | – | had no effect on intestinal pain | had no effect on intestinal nociception | intestinal pain measured by VMR (GW mice; i.p., 0.5 mg/Kg, IBS-like mouse model (FIG. 7)): significantly inhibited intestinal pain levels
COc1ccccc1-c1c(O)c(OC)cc2c1CN(CCCc1cccnc1)CC2 [Compound 9, 6-methoxy-8-(2-methoxyphenyl)-2-(3-(pyridin-3-yl)propyl)-1,2,3,4-tetrahydroisoquinolin-7-ol] | 1.7 | 4.9 | > 1000 | – | – | –
COc1ccc(-c2c(O)c(OC)cc3c2CN(CCc2ccccc2F)CC3)c(OC)c1 [Compound 6] | 3.98 | 3.5 | 2.2 | – | – | –
COc1ccccc1-c1c(O)c(OC)cc2c1CN(CCCc1ccc([N+](=O)[O-])cc1)CC2 [Compound 7, 6-methoxy-8-(2-methoxyphenyl)-2-(3-(4-nitrophenyl)propyl)-1,2,3,4-tetrahydroisoquinolin-7-ol] | 3.66 | 1.4 | 70 | – | – | –
COc1ccccc1-c1c(O)c(OC)cc2c1CN(CCCc1ccncc1)CC2 [Compound 8, 6-methoxy-8-(2-methoxyphenyl)-2-(3-(pyridin-4-yl)propyl)-1,2,3,4-tetrahydroisoquinolin-7-ol] | 1.68 | 5.8 | > 1000 | – | strongest inhibition of intestinal pain to baseline levels | intestinal pain after repeated administration (TNBS mice; multiple doses): reduced intestinal pain; intestinal pain, time response (GW mice; GW mice, 5 mg/kg p.o. at 1.5, 4 or 12 hours prior to pain measurement): Reduction of pain levels was seen at three time points; intestinal pain, dose response (GW mice; GW mice, i.p. at 0.05 and 0.5 mg/kg, 90 minutes before analysis (FIG. 9A)): Dose-dependent analgesic effects; intestinal pain, dose response (GW mice; GW mice, p.o. at 1.5 and 5 mg/kg, 90 minutes before analysis (FIG. 9B)): Dose-dependent analgesic effects; intestinal pain after repeated administration (GW mice; GW mice, p.o. multiple doses over 10 days): decreased intestinal pain in GW mice in a dose-dependent manner
